# Assay results taken from patent publication US4684664A, “Derivatives of β-(4-isocyano-1,2,3,4-diepoxycyclopentyl) acrylic acid” (Kureha Kagaku Kogyo Kabushiki Kaisha, priority 1984, dated 1987).
# How the values were obtained:
# Type in all cases: cell-based
# [1] = tested on: Staphylococcus aureus Terajima; assay: Antibacterial activity, agar-dilution MIC, organism No. 2; conditions: Staphylococcus aureus; Organism No. 2, bouillon-agar; read-out: Minimum Inhibitory Concentration
# Summary of the method: (§1)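 Agar dilution, bouillon-agar plates; MIC reported in μg/ml of medium.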
# [2] = tested on: Streptococcus faecium IFO 3826; assay: Antibacterial activity, agar-dilution MIC, organism No. 27; conditions: Enterococcus faecium, IFO3826; Organism No. 27, bouillon-agar; read-out: Minimum Inhibitory Concentration
# Summary of the method: as §1
# [3] = tested on: Proteus rettgeri IFO 3850; assay: Antibacterial activity, agar-dilution MIC, organism No. 22; conditions: Providencia rettgeri, IFO3850; Organism No. 22, bouillon-agar; read-out: Minimum Inhibitory Concentration
# Summary of the method: as §1
# [4] = tested on: Enterobacter aerogenes ATCC 13048; assay: Antibacterial activity, agar-dilution MIC, organism No. 23; conditions: Klebsiella aerogenes, ATCC13048; Organism No. 23, bouillon-agar; read-out: Minimum Inhibitory Concentration
# Summary of the method: as §1
# [5] = tested on: Salmonella shottmuelleri 8006; assay: Antibacterial activity, agar-dilution MIC, organism No. 11; conditions: Salmonella, 8006; Organism No. 11, bouillon-agar; read-out: Minimum Inhibitory Concentration
# Summary of the method: as §1
# [6] = tested on: Bacillus subtilis ATCC 6633; assay: Antibacterial activity, agar-dilution MIC, organism No. 14; conditions: Bacillus subtilis, ATCC6633; Organism No. 14, bouillon-agar; read-out: Minimum Inhibitory Concentration
# Summary of the method: as §1
# [7] = tested on: Mycoplasma pneumoniae IID817; assay: Antimycoplasmal activity, MIC by phenol red colour change, organism No. 28; conditions: Mycoplasma, IID817; Organism No. 28, PPLO broth + 1% glucose, 37° C.; read-out: Minimum Inhibitory Concentration (MIC)
# Method: Mycoplasma pneumoniae IID817 was used as the test microorganism in a culture medium prepared by adding 1% of glucose to "PPLO broth (manufactured by Difco Co.) liquid culture medium" at 37° C. with phenol red as an indicator, thereby culturing the test microorganism.
# Proteus vulgaris HX-19 = assay: Antibacterial activity, agar-dilution MIC, organism No. 21; conditions: Proteus vulgaris, HX19; Organism No. 21, bouillon-agar; read-out: Minimum Inhibitory Concentration
# Summary of the method: as §1
# [8] = tested on: Candida albicans IAM 4905; assay: Antifungal activity, agar-dilution MIC, organism No. 29; conditions: Candida albicans, IAM4905; Organism No. 29, bouillon-agar; read-out: Minimum Inhibitory Concentration
# Summary of the method: as §1
# [9] = tested on: Klebsiella pneumoniae PCI-602; assay: Antibacterial activity, agar-dilution MIC, organism No. 7; conditions: Klebsiella pneumoniae, PCI602; Organism No. 7, bouillon-agar; read-out: Minimum Inhibitory Concentration
# Summary of the method: as §1
# Proteus vulgaris OX-19 = assay: Antibacterial activity, agar-dilution MIC, organism No. 20; conditions: Proteus vulgaris, OX19; Organism No. 20, bouillon-agar; read-out: Minimum Inhibitory Concentration
# Summary of the method: as §1
# Salmonella typhi 901 = assay: Antibacterial activity, agar-dilution MIC, organism No. 9; conditions: Salmonella enterica, TYPHI, read-out: Minimum Inhibitory Concentration
# Summary of the method: as §1
# [10] = tested on: Serratia marcescens IAM 1184; assay: Antibacterial activity, agar-dilution MIC, organism No. 13; conditions: Serratia marcescens, IAM1184; Organism No. 13, bouillon-agar; read-out: Minimum Inhibitory Concentration
# Summary of the method: as §1
# Enterobacter cloacae 963 = assay: Antibacterial activity, agar-dilution MIC, organism No. 24; conditions: Enterobacter cloacae, 963; Organism No. 24, bouillon-agar; read-out: Minimum Inhibitory Concentration
# Summary of the method: as §1
# [11] = tested on: Micrococcus luteus ATCC 9341; assay: Antibacterial activity, agar-dilution MIC, organism No. 25; conditions: Micrococcus luteus, ATCC9341; Organism No. 25, bouillon-agar; read-out: Minimum Inhibitory Concentration
# Summary of the method: as §1
# [12] = tested on: Staphylococcus aureus MS 353; assay: Antibacterial activity, agar-dilution MIC, organism No. 3; conditions: Staphylococcus aureus, MS353; Organism No. 3, bouillon-agar; read-out: Minimum Inhibitory Concentration
# Summary of the method: as §1
# [13] = tested on: Streptococcus pyogenes IFO 3340; assay: Antibacterial activity, agar-dilution MIC, organism No. 26; conditions: Streptococcus pyogenes, IFO3340; Organism No. 26, bouillon-agar; read-out: Minimum Inhibitory Concentration
# Summary of the method: as §1
# [14] = tested on: Staphylococcus aureus FDA 209PJc-1; assay: Antibacterial activity, agar-dilution MIC, organism No. 1; conditions: Staphylococcus aureus, FDA209PJC1; Organism No. 1, bouillon-agar; read-out: Minimum Inhibitory Concentration
# Summary of the method: as §1
# [15] = tested on: Pseudomonas aeruginosa IFO 3445; assay: Antibacterial activity, agar-dilution MIC, organism No. 15; conditions: Pseudomonas aeruginosa, IFO3445; Organism No. 15, bouillon-agar; read-out: Minimum Inhibitory Concentration
# Summary of the method: as §1
# [16] = tested on: Pseudomonas aeruginosa NCTC 10490; assay: Antibacterial activity, agar-dilution MIC, organism No. 16; conditions: Pseudomonas aeruginosa, NCTC10490; Organism No. 16, bouillon-agar; read-out: Minimum Inhibitory Concentration
# Summary of the method: as §1
# [17] = tested on: Escherichia coli NIHJ-JC-2; assay: Antibacterial activity, agar-dilution MIC, organism No. 5; conditions: Escherichia coli, NIHJJC2; Organism No. 5, bouillon-agar; read-out: Minimum Inhibitory Concentration
# Summary of the method: as §1
# [18] = tested on: Salmonella enteritidis G 14; assay: Antibacterial activity, agar-dilution MIC, organism No. 12; conditions: Salmonella enterica, ENTERITIDIS; Organism No. 12, bouillon-agar; read-out: Minimum Inhibitory Concentration
# Summary of the method: as §1
# [19] = tested on: Proteus mirabilis IFO 3849; assay: Antibacterial activity, agar-dilution MIC, organism No. 19; conditions: Proteus mirabilis, IFO3849; Organism No. 19, bouillon-agar; read-out: Minimum Inhibitory Concentration
# Summary of the method: as §1
# [20] = tested on: Salmonella typhimurium IID 971; assay: Antibacterial activity, agar-dilution MIC, organism No. 8; conditions: Salmonella enterica; Organism No. 8, bouillon-agar; read-out: Minimum Inhibitory Concentration
# Summary of the method: as §1
# [21] = tested on: Escherichia coli K12 C600 IAM 1264; assay: Antibacterial activity, agar-dilution MIC, organism No. 6; conditions: Escherichia coli, IAM1264; Organism No. 6, bouillon-agar; read-out: Minimum Inhibitory Concentration
# Summary of the method: as §1
# [22] = tested on: Streptococcus pyogenes Cook; assay: Antibacterial activity, agar-dilution MIC, organism No. 4; conditions: Streptococcus pyogenes; Organism No. 4, bouillon-agar; read-out: Minimum Inhibitory Concentration
# Summary of the method: as §1
# [23] = tested on: Salmonella paratyphi-A 1015; assay: Antibacterial activity, agar-dilution MIC, organism No. 10; conditions: Salmonella enterica, PARATYPHI, read-out: Minimum Inhibitory Concentration
# Summary of the method: as §1
# [24] = tested on: Aspergillus niger IFO 6342; assay: Antifungal activity, agar-dilution MIC, organism No. 30; conditions: Aspergillus niger, IFO6342; Organism No. 30, bouillon-agar; read-out: Minimum Inhibitory Concentration
# Summary of the method: as §1
# [25] = tested on: Proteus morganii IFO 3848; assay: Antibacterial activity, agar-dilution MIC, organism No. 18; conditions: Morganella morganii, IFO3848; Organism No. 18, bouillon-agar; read-out: Minimum Inhibitory Concentration
# Summary of the method: as §1
# [26] = tested on: Pseudomonas aeruginosa PAO 1; assay: Antibacterial activity, agar-dilution MIC, organism No. 17; conditions: Pseudomonas aeruginosa, PAO1; Organism No. 17, bouillon-agar; read-out: Minimum Inhibitory Concentration
# Summary of the method: as §1
SMILES,MIC [1],MIC [2],MIC [3],MIC [4],MIC [5],MIC [6],MIC [7],MIC (Proteus vulgaris HX-19),MIC [8],MIC [9],MIC (Proteus vulgaris OX-19),MIC (Salmonella typhi 901),MIC [10],MIC (Enterobacter cloacae 963),MIC [11],MIC [12],MIC [13],MIC [14],MIC [15],MIC [16],further results
[C-]#[N+]C12CC3(/C=C/C(=O)NC4CCCCC4)OC3C1O2 (stereo not drawn) [compound 20],12.5 µg/mL,12.5 µg/mL,> 200 µg/mL,> 200 µg/mL,3.13 µg/mL,50 µg/mL,< 0.2 µg/mL,0.1 µg/mL,1.56 µg/mL,0.39 µg/mL,0.78 µg/mL,6.25 µg/mL,> 200 µg/mL,> 200 µg/mL,< 0.05 µg/mL,1.56 µg/mL,6.25 µg/mL,1.56 µg/mL,> 200 µg/mL,> 200 µg/mL,MIC [17]: > 200 µg/mL; MIC [18]: 12.5 µg/mL; MIC [19]: > 200 µg/mL; MIC [20]: 100 µg/mL; MIC [21]: > 200 µg/mL; MIC [22]: 6.25 µg/mL; MIC [23]: 6.25 µg/mL; MIC [24]: 6.25 µg/mL; MIC [25]: 0.78 µg/mL; MIC [26]: > 200 µg/mL
[C-]#[N+]C12CC3(/C=C/C(=O)N4CCCC4)OC3C1O2 (stereo not drawn) [compound 21],100 µg/mL,> 200 µg/mL,> 200 µg/mL,> 200 µg/mL,50 µg/mL,200 µg/mL,1.56 µg/mL,1.56 µg/mL,6.25 µg/mL,50 µg/mL,25 µg/mL,50 µg/mL,> 200 µg/mL,> 200 µg/mL,0.39 µg/mL,50 µg/mL,> 200 µg/mL,50 µg/mL,> 200 µg/mL,> 200 µg/mL,MIC [17]: > 200 µg/mL; MIC [18]: 50 µg/mL; MIC [19]: > 200 µg/mL; MIC [20]: 100 µg/mL; MIC [21]: > 200 µg/mL; MIC [22]: 100 µg/mL; MIC [23]: 100 µg/mL; MIC [24]: 3.13 µg/mL; MIC [25]: 50 µg/mL; MIC [26]: > 200 µg/mL
[C-]#[N+]C12CC3(/C=C/C(=O)N4CCOCC4)OC3C1O2 (stereo not drawn) [compound 22],100 µg/mL,> 200 µg/mL,> 200 µg/mL,> 200 µg/mL,25 µg/mL,200 µg/mL,1.56 µg/mL,1.56 µg/mL,6.25 µg/mL,50 µg/mL,12.5 µg/mL,6.25 µg/mL,> 200 µg/mL,> 200 µg/mL,0.39 µg/mL,50 µg/mL,200 µg/mL,50 µg/mL,> 200 µg/mL,> 200 µg/mL,MIC [17]: 50 µg/mL; MIC [18]: 12.5 µg/mL; MIC [19]: > 200 µg/mL; MIC [20]: 25 µg/mL; MIC [21]: 50 µg/mL; MIC [22]: 50 µg/mL; MIC [23]: 25 µg/mL; MIC [24]: 3.13 µg/mL; MIC [25]: 6.25 µg/mL; MIC [26]: > 200 µg/mL
[C-]#[N+]C12CC3(/C=C/C(=O)Nc4ccc(I)cc4)OC3C1O2 (stereo not drawn) [compound 45],> 200 µg/mL,> 200 µg/mL,> 200 µg/mL,> 200 µg/mL,50 µg/mL,> 200 µg/mL,< 0.2 µg/mL,0.78 µg/mL,3.13 µg/mL,6.25 µg/mL,0.78 µg/mL,> 200 µg/mL,> 200 µg/mL,> 200 µg/mL,< 0.05 µg/mL,12.5 µg/mL,> 200 µg/mL,12.5 µg/mL,> 200 µg/mL,> 200 µg/mL,MIC [17]: > 200 µg/mL; MIC [18]: > 200 µg/mL; MIC [19]: > 200 µg/mL; MIC [20]: > 200 µg/mL; MIC [21]: > 200 µg/mL; MIC [22]: > 200 µg/mL; MIC [23]: > 200 µg/mL; MIC [24]: 3.13 µg/mL; MIC [25]: 100 µg/mL; MIC [26]: > 200 µg/mL
